Here are results for 13 compounds from ChEMBL document CHEMBL5346933, “Design and synthesis of novel arylurea derivatives of aryloxy(1-phenylpropyl) alicyclic diamines with antimicrobial activity against multidrug-resistant Gram-positive bacteria” (Eur J Med Chem, 2023).

Common to all, as to type: functional
One assay relates to Pseudomonas aeruginosa. Nature of the assay: Antibacterial activity against Pseudomonas aeruginosa ATCC 27853 assessed as inhibition of bacterial growth incubated for 18 hrs by broth microdilution method. In general terms: Dilution methods test growth across graded concentrations, often in twofold steps.
The subject of assay [1] is Staphylococcus epidermidis. Nature of the assay: Antibacterial activity against linezolid-resistant Staphylococcus epidermidis NIL 4399/19 assessed as inhibition of bacterial growth incubated for 18 hrs by broth microdilution method.
Another assay has as its system Streptococcus pneumoniae. In words: Antibacterial activity against Streptococcus pneumoniae ATCC 49619 assessed as inhibition of bacterial growth incubated for 18 hrs by broth microdilution method.
In assay [2] the test system is Staphylococcus aureus. Nature of the assay: Antibacterial activity against biofilm producer Staphylococcus aureus RN450 assessed as inhibition of bacterial growth incubated for 18 hrs by broth microdilution method.
A further assay concerns Klebsiella pneumoniae. Nature of the assay: Antibacterial activity against Klebsiella pneumoniae ATCC 700603 assessed as inhibition of bacterial growth incubated for 18 hrs by broth microdilution method.
Assay [3] has as its system Staphylococcus epidermidis. In words: Antibacterial activity against methicillin-susceptible Staphylococcus epidermidis ATCC 12228 assessed as inhibition of bacterial growth incubated for 18 hrs by broth microdilution method.
In another assay the test system is Escherichia coli. Nature of the assay: Antibacterial activity against Escherichia coli ATCC 25922 assessed as inhibition of bacterial growth incubated for 18 hrs by broth microdilution method.
Assay [4] relates to Staphylococcus aureus. In words: Antibacterial activity against methicillin-resistant Staphylococcus aureus clinical strain 19449 assessed as inhibition of bacterial growth incubated for 18 hrs by broth microdilution method.
Assay [5] relates to Staphylococcus aureus. In words: Antibacterial activity against vancomycin-intermediate Staphylococcus aureus ATCC 700699 assessed as inhibition of bacterial growth incubated for 18 hrs by broth microdilution method.
Assay [6] has as its system Staphylococcus epidermidis. In words: Antibacterial activity against biofilm producer Staphylococcus epidermidis ATCC 35984 assessed as inhibition of bacterial growth incubated for 18 hrs by broth microdilution method.
Assay [7] has as its system Staphylococcus aureus. In words: Antibacterial activity against methicillin-susceptible Staphylococcus aureus ATCC 25923 assessed as inhibition of bacterial growth incubated for 18 hrs by broth microdilution method.
For a further assay, the system named is Enterococcus faecium. Nature of the assay: Antibacterial activity against vancomycin-resistant Enterococcus faecium assessed as inhibition of bacterial growth incubated for 18 hrs by broth microdilution method.
The subject of another assay is Enterococcus faecalis. Nature of the assay: Antibacterial activity against Enterococcus faecalis ATCC 29212 assessed as inhibition of bacterial growth incubated for 18 hrs by broth microdilution method.

≈ marks a conversion by molar mass, not a printed value. Calls of active or inactive are those of the source. The calls are words filed in the database; no cut-off is given here.

On to `O=C(Nc1cccc(Cl)c1)N1CCN(CCC(Oc2ccc(C(F)(F)F)cc2)c2ccccc2)CC1` (racemic), for which the outcome in the assay with Pseudomonas aeruginosa, in the assay on Klebsiella pneumoniae and in the assay on Escherichia coli was inactive. Moreover, the MIC (in assay [1]; in the assay with Streptococcus pneumoniae; in the assay with Staphylococcus aureus [2]; in assay [3]; in the assay with Staphylococcus aureus [4]; in the assay with Staphylococcus aureus [5]) was greater than 12.5 µg/mL throughout. In addition, the MIC (in [6]; in the assay with Staphylococcus aureus [7]) was greater than 12.5 µg/mL each time.
As to `O=C(Nc1cccc(Cl)c1)NC1CCN(CCC(Oc2ccccc2C(F)(F)F)c2ccccc2)CC1` (racemic), the result with Pseudomonas aeruginosa, in the assay with Klebsiella pneumoniae and in the assay on Escherichia coli was inactive. Besides, the MIC in assay [1] was determined as 3.12 µg/mL (≈ 5.87 µM); in the assay with Streptococcus pneumoniae it was 12.5 µg/mL (≈ 23.5 µM); in the assay on Staphylococcus aureus [2] it was 3.12 µg/mL (≈ 5.87 µM); in assay [3] it was 12.5 µg/mL (≈ 23.5 µM); in the assay on Staphylococcus aureus [4], 3.12 µg/mL (≈ 5.87 µM); with Staphylococcus aureus [5] it was 3.12 µg/mL (≈ 5.87 µM). In addition, the MIC in [6] is greater than 12.5 µg/mL; in the assay on Staphylococcus aureus [7] it was 3.12 µg/mL (≈ 5.87 µM).
As to `O=C(Nc1cccc(Cl)c1)NC1CCN(CCC(Oc2ccc(C(F)(F)F)cc2)c2ccccc2)CC1` (stereo not given), the outcome in the assay on Pseudomonas aeruginosa, in the assay with Klebsiella pneumoniae and with Escherichia coli was inactive. Further, the MIC in assay [1] is 3.12 µg/mL (≈ 5.87 µM); in the assay with Streptococcus pneumoniae it was greater than 12.5 µg/mL; with Enterococcus faecium, 1.56 µg/mL (≈ 2.93 µM); with Staphylococcus aureus [2], 3.12 µg/mL (≈ 5.87 µM); in assay [3] it was 0.78 µg/mL (≈ 1.47 µM); in the assay on Staphylococcus aureus [4] it was 6.25 µg/mL (≈ 11.7 µM). The MIC in the assay on Enterococcus faecalis was determined as 6.25 µg/mL (≈ 11.7 µM); with Staphylococcus aureus [5] it was 6.25 µg/mL (≈ 11.7 µM); in assay [6], 3.12 µg/mL (≈ 5.87 µM); in the assay on Staphylococcus aureus [7], 0.78 µg/mL (≈ 1.47 µM).
Regarding `O=C(Nc1ccc(Cl)cc1)NC1CCN(CCC(Oc2ccc(C(F)(F)F)cc2)c2ccccc2)CC1` (racemic), the result in the assay with Pseudomonas aeruginosa, with Klebsiella pneumoniae and with Escherichia coli was inactive. For the same compound, the MIC in assay [1] is greater than 12.5 µg/mL; in the assay with Streptococcus pneumoniae, 6.25 µg/mL (≈ 11.7 µM); in the assay on Staphylococcus aureus [2] it was 1.56 µg/mL (≈ 2.93 µM); in assay [3] it was greater than 12.5 µg/mL; in the assay with Staphylococcus aureus [4], 6.25 µg/mL (≈ 11.7 µM); in the assay with Staphylococcus aureus [5] it was greater than 12.5 µg/mL. The figures for the MIC (in [6]; in the assay on Staphylococcus aureus [7]) were 3.12 µg/mL (≈ 5.87 µM) and greater than 12.5 µg/mL, respectively.
On to `O=C(Nc1cccc(Cl)c1)NC1CCN(CCC(Oc2ccccc2F)c2ccccc2)CC1` (racemic), for which the result in the assay on Pseudomonas aeruginosa, in the assay with Klebsiella pneumoniae and in the assay on Escherichia coli was inactive. Moreover, the MIC in [1] was 6.25 µg/mL (≈ 13 µM); with Streptococcus pneumoniae, 12.5 µg/mL (≈ 25.9 µM); in the assay with Staphylococcus aureus [2], 6.25 µg/mL (≈ 13 µM); in assay [3], 12.5 µg/mL (≈ 25.9 µM); in the assay with Staphylococcus aureus [4] it was 12.5 µg/mL (≈ 25.9 µM); with Staphylococcus aureus [5] it was 12.5 µg/mL (≈ 25.9 µM). Also, the MIC (in [6]; with Staphylococcus aureus [7]) was 12.5 µg/mL (≈ 25.9 µM) in each case.
For the compound `O=C(Nc1ccc(F)cc1)NC1CCN(CCC(Oc2ccc(C(F)(F)F)cc2)c2ccccc2)CC1` (racemic), the result in the assay with Pseudomonas aeruginosa, in the assay with Klebsiella pneumoniae and in the assay on Escherichia coli was inactive. Moreover, the MIC was 3.12 µg/mL (≈ 6.06 µM) in assay [1]; greater than 12.5 µg/mL in the assay with Streptococcus pneumoniae; 3.12 µg/mL (≈ 6.06 µM) in the assay on Enterococcus faecium; 3.12 µg/mL (≈ 6.06 µM) in the assay with Staphylococcus aureus [2]; 6.25 µg/mL (≈ 12.1 µM) in assay [3]; 3.12 µg/mL (≈ 6.06 µM) in the assay with Staphylococcus aureus [4]. Further, the MIC with Enterococcus faecalis amounted to 6.25 µg/mL (≈ 12.1 µM); in the assay with Staphylococcus aureus [5], 6.25 µg/mL (≈ 12.1 µM); in assay [6], 3.12 µg/mL (≈ 6.06 µM); with Staphylococcus aureus [7], 6.25 µg/mL (≈ 12.1 µM).
For the compound `O=C(Nc1cccc(Cl)c1)NC1CCN(CCC(Oc2ccccc2Cl)c2ccccc2)CC1` (racemic), the outcome with Pseudomonas aeruginosa, with Klebsiella pneumoniae and in the assay with Escherichia coli was inactive. The MIC is 3.12 µg/mL (≈ 6.27 µM) in [1]; 12.5 µg/mL (≈ 25.1 µM) in the assay with Streptococcus pneumoniae; 6.25 µg/mL (≈ 12.5 µM) with Enterococcus faecium; 1.56 µg/mL (≈ 3.13 µM) in the assay on Staphylococcus aureus [2]; 6.25 µg/mL (≈ 12.5 µM) in assay [3]; 6.25 µg/mL (≈ 12.5 µM) with Staphylococcus aureus [4]. Besides, the MIC amounted to 6.25 µg/mL (≈ 12.5 µM) with Enterococcus faecalis, 6.25 µg/mL (≈ 12.5 µM) in the assay on Staphylococcus aureus [5], 3.12 µg/mL (≈ 6.27 µM) in assay [6] and 6.25 µg/mL (≈ 12.5 µM) in the assay with Staphylococcus aureus [7].
As to `COc1cccc(OC(CCN2CCC(NC(=O)Nc3cccc(Cl)c3)CC2)c2ccccc2)c1` (racemic), the outcome with Pseudomonas aeruginosa, in the assay on Klebsiella pneumoniae and with Escherichia coli was inactive. The MIC stood at 6.25 µg/mL (≈ 12.7 µM) in assay [1]; 12.5 µg/mL (≈ 25.3 µM) in the assay with Streptococcus pneumoniae; 3.12 µg/mL (≈ 6.33 µM) in the assay with Staphylococcus aureus [2]; 6.25 µg/mL (≈ 12.7 µM) in assay [3]; 12.5 µg/mL (≈ 25.3 µM) with Staphylococcus aureus [4]; 12.5 µg/mL (≈ 25.3 µM) in the assay on Staphylococcus aureus [5]. Moreover, the MIC in assay [6] came out at 6.25 µg/mL (≈ 12.7 µM); in the assay on Staphylococcus aureus [7], 12.5 µg/mL (≈ 25.3 µM).
Consider `COc1ccc(OC(CCN2CCC(NC(=O)Nc3cccc(Cl)c3)CC2)c2ccccc2)cc1` (racemic), for which the result in the assay on Pseudomonas aeruginosa, in the assay on Klebsiella pneumoniae and in the assay with Escherichia coli was inactive. For the same compound, the MIC in [1] is 6.25 µg/mL (≈ 12.7 µM); in the assay on Streptococcus pneumoniae it was greater than 12.5 µg/mL; in the assay with Staphylococcus aureus [2], 6.25 µg/mL (≈ 12.7 µM); in assay [3], 12.5 µg/mL (≈ 25.3 µM); in the assay on Staphylococcus aureus [4], 12.5 µg/mL (≈ 25.3 µM); in the assay on Staphylococcus aureus [5] it was 6.25 µg/mL (≈ 12.7 µM). In addition, the values for the MIC (in assay [6]; in the assay on Staphylococcus aureus [7]) were 6.25 µg/mL (≈ 12.7 µM) and 12.5 µg/mL (≈ 25.3 µM), respectively.
For the compound `O=C(O)c1cn(C2CC2)c2cc(N3CCNCC3)c(F)cc2c1=O` [CIPROFLOXACIN], the MIC in [1] is greater than 12.5 µg/mL; with Enterococcus faecium it was 0.78 µg/mL (≈ 2.35 µM); in the assay with Staphylococcus aureus [2], 0.78 µg/mL (≈ 2.35 µM); in assay [3] it was 0.78 µg/mL (≈ 2.35 µM); in the assay on Enterococcus faecalis, 0.78 µg/mL (≈ 2.35 µM); in assay [6], 0.78 µg/mL (≈ 2.35 µM). In addition, in the assay on Staphylococcus aureus [7], the MIC was 0.78 µg/mL (≈ 2.35 µM).
Consider `O=C(Nc1ccccc1)NC1CCN(CCC(Oc2ccc(C(F)(F)F)cc2)c2ccccc2)CC1` (racemic), for which the outcome in the assay on Pseudomonas aeruginosa, in the assay with Klebsiella pneumoniae and in the assay on Escherichia coli was inactive. The MIC (in [1]; in the assay on Streptococcus pneumoniae; with Staphylococcus aureus [2]; in assay [3]; in the assay on Staphylococcus aureus [4]; in the assay with Staphylococcus aureus [5]) was greater than 12.5 µg/mL throughout. Further, the MIC in [6] is 12.5 µg/mL (≈ 25.1 µM); in the assay with Staphylococcus aureus [7] it was greater than 12.5 µg/mL.
As for `COc1ccccc1OC(CCN1CCC(NC(=O)Nc2cccc(Cl)c2)CC1)c1ccccc1` (stereo not given), the outcome in the assay with Pseudomonas aeruginosa, with Klebsiella pneumoniae and in the assay with Escherichia coli was inactive. Also, the MIC (in [1]; in the assay with Streptococcus pneumoniae; in the assay with Staphylococcus aureus [2]; in assay [3]; with Staphylococcus aureus [4]; in the assay with Staphylococcus aureus [5]) was greater than 12.5 µg/mL throughout. Moreover, the MIC in assay [6] was 12.5 µg/mL (≈ 25.3 µM); with Staphylococcus aureus [7], greater than 12.5 µg/mL.
`O=C(Nc1cccc(Cl)c1)NC1CCN(CCC(Oc2ccccc2)c2ccccc2)CC1` (racemic): the outcome with Pseudomonas aeruginosa, in the assay on Klebsiella pneumoniae and with Escherichia coli was inactive. Further, the MIC in assay [1] came out at 6.25 µg/mL (≈ 13.5 µM); with Streptococcus pneumoniae it was 12.5 µg/mL (≈ 26.9 µM); in the assay with Staphylococcus aureus [2] it was 1.56 µg/mL (≈ 3.36 µM); in assay [3], 6.25 µg/mL (≈ 13.5 µM); in the assay with Staphylococcus aureus [4], 12.5 µg/mL (≈ 26.9 µM); in the assay with Staphylococcus aureus [5], 12.5 µg/mL (≈ 26.9 µM). Further, the MIC in [6] was determined as 3.12 µg/mL (≈ 6.73 µM); in the assay with Staphylococcus aureus [7], 6.25 µg/mL (≈ 13.5 µM).
